For ten molecules, MIC results are on record in patent publication US20260234161A1, “RIFABUTIN ANALOGS FOR THE TREATMENT OF BACTERIAL DISEASES” (BIOVERSYS AG, priority 2023, published 2026).

≈ marks a conversion by molar mass, not a printed value.

Holding throughout (type): cell-based
Test [1] relates to S. aureus (UAMS-1625 strain). Kind of test: MIC by broth microdilution, S. aureus. The settings on record: Staphylococcus aureus, 20 h, read-out: MIC S. aureus. In outline:
(§1)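 CLSI broth microdilution in cation-adjusted Mueller Hinton broth, 5×10^5 CFU/mL inoculum; ADC (5%) added for M. avium and M. xenopi (M. xenopi inoculum from 7H9+ADC liquid culture). Two-fold series 16–0.016 μg/mL (M. abscessus, M. avium), 1–6×10^−5 μg/mL (M. xenopi); S. aureus 35° C 20 h, M. abscessus 30° C 4 days, others 37° C ≥7 days; MIC = lowest concentration without visible growth.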

Test [2] has as its system A. baumannii (HUMC1 strain). Kind of test: MIC by broth microdilution, A. baumannii (RPMI + 10% FCS). The following applies: Acinetobacter baumannii; HUMC1 strain; RPMI medium + 10% FCS; 35° C., 20 hours; read-out: MIC A. baumannii. A general note: Broth dilution looks for growth in wells or tubes with falling amounts of substance.
Another test concerns M. kansasii (ATCC 12478). Kind of test: MIC by broth microdilution, M. kansasii. The following applies: Mycobacterium kansasii, ATCC12478, 168 h, cation adjusted Mueller Hinton broth + ADC (5%), 37° C., 7 days (at least). On the procedure: (§2) MIC values were determined by broth microdilution method according to the CLSI guidelines with the following exceptions: MIC against A. baumannii was performed in RPMI medium supplemented with 10% FCS and MIC against M. abscessus was performed in Middlebrook 7H9 broth supplemented with Middlebrook ADC growth supplement (10%; see column “M. abscessus 7H9”). MIC forM abscessus was determined a second time in standard cation adjusted Mueller Hinton broth without growth supplement (see colum “M. abscessus MH”). All other MIC were performed in standard cation adjusted Mueller Hinton broth, supplemented with Middlebrook ADC growth supplement (5%) for the slow growing mycobacteria (M. xenopi, M. kansasii and M. avium).
(§3) The following procedure applies to all species tested, except forM xenopi. From a fresh culture plate (from overnight to several days depending on the bacteria), cells were resuspended in 0.9% (w/v) saline solution and bacterial inoculum was prepared in the respective testing medium with 5×10^5 CFU/mL. For M. xenopi, the inoculum was prepared from a fresh liquid culture (7H9+ADC). The appropriate volumes of a 10 mg/mL compound solution were directly dispensed in the 96-well assay plate using a digital dispenser to create two-fold dilution series from 32 to 0.002 μg/mL final concentration for A. baumannii and S. aureus; from 16 to 0.016 μg/mL for M. abscessus and M. avium; and from 1 to 6×10^−5 μg/mL for M. kansasii and M. xenopi. 100 μL of bacterial suspension was finally added to the compounds. Plates were covered and incubated without shaking at 35° C. for 20 hours for A. baumanii and S. aureus; at 30° C. for 4 days for M. abscessus; and at 37° C. for 7 days (at least) for M. kansasii (covered with aluminum foil to avoid light exposure), M. avium and M. xenopi. Every experiment contained an antibiotic as quality control. MIC was determined visually as the lowest concentration of a compound that prevents visible growth of the bacteria.
(§4) The in vitro activity of compounds described herein was determined against S. aureus (UAMS-1625 strain), A. baumannii (HUMC1 strain), M. abscessus (ATCC 19977), M. kansasii (ATCC 12478), M. avium (ATCC 25291), and M. xenopi (ATCC 19250).

The next test relates to M. avium (ATCC 25291). Kind of test: MIC by broth microdilution, M. avium. The following applies: Mycobacterium avium, ATCC25291, 168 h, cation adjusted Mueller Hinton broth + ADC (5%), 37° C., 7 days (at least). On the procedure: as §2, §3, §4
The next test deals with M. xenopi (ATCC 19250). Kind of test: MIC by broth microdilution, M. xenopi. The following applies: Mycobacterium xenopi, ATCC19250, 168 h, cation adjusted Mueller Hinton broth + ADC (5%), 37° C., 7 days (at least). How it is done: as §2, §3, §4
Test [3] deals with M. abscessus (ATCC 19977). Kind of test: MIC by broth microdilution, M. abscessus in cation adjusted Mueller Hinton broth. The following applies: Mycobacteroides abscessus, ATCC19977, 96 h; ATCC 19977; cation adjusted Mueller Hinton broth without growth supplement; 30° C., 4 days; read-out: MIC M. abscessus MH. In short, it runs like this:
as §1

For test [4], the system named is M. abscessus (ATCC 19977). Kind of test: MIC by broth microdilution, M. abscessus in Middlebrook 7H9 broth + ADC. The settings on record: Mycobacteroides abscessus, ATCC19977, 96 h; ATCC 19977; Middlebrook 7H9 broth + ADC growth supplement (10%); 30° C., 4 days; read-out: MIC M. abscessus 7H9. How it is done:
as §2, §3, §4

The MIC is the lowest concentration found to suppress growth. As for `CO[C@H]1/C=C/O[C@@]2(C)Oc3c(C)c(O)c4c(c3C2=O)C2=NC3(CCN(CC(C)C)CC3)NC2=C(NC(=O)/C(C)=C\C=C\[C@H](C)[C@H](O)[C@@H](C)[C@@H](O)[C@@H](C)[C@H](OC(=O)N2CCC(c3ccccc3)CC2)[C@@H]1C)C4=O` [Compound 1], the MIC came out at 0.5 µg/mL (≈ 0.504 µM) in test [1]; 0.25 µg/mL in test [2]; 0.004 µg/mL with M. kansasii (ATCC 12478); 0.125 µg/mL with M. avium (ATCC 25291); 0.03 µg/mL in the test on M. xenopi (ATCC 19250); 0.5 µg/mL (≈ 0.504 µM) in test [3]. Moreover, the MIC in test [4] turned out to be 0.125 µg/mL.
As for `CO[C@H]1/C=C/O[C@@]2(C)Oc3c(C)c(O)c4c(c3C2=O)C2=NC3(CCN(CC(C)C)CC3)NC2=C(NC(=O)/C(C)=C\C=C\[C@H](C)[C@H](O)[C@@H](C)[C@@H](O)[C@@H](C)[C@H](OC(=O)N2CCC(c3ccncc3)CC2)[C@@H]1C)C4=O` [Compound 2], the MIC was 0.125 µg/mL (≈ 0.126 µM) in test [1]; 0.016 µg/mL in test [2]; 0.0005 µg/mL with M. kansasii (ATCC 12478); 0.06 µg/mL with M. avium (ATCC 25291); 0.002 µg/mL with M. xenopi (ATCC 19250); 0.25 µg/mL (≈ 0.252 µM) in test [3]. For the same molecule, in test [4], the MIC amounted to 0.125 µg/mL.
`CO[C@H]1/C=C/O[C@@]2(C)Oc3c(C)c(O)c4c(c3C2=O)C2=NC3(CCN(CC(C)C)CC3)NC2=C(NC(=O)/C(C)=C\C=C\[C@H](C)[C@H](O)[C@@H](C)[C@@H](O)[C@@H](C)[C@H](OC(=O)N2CCC(N(C)c3ccccc3)CC2)[C@@H]1C)C4=O` [Compound 4]: the MIC in test [1] turned out to be 0.5 µg/mL (≈ 0.49 µM); in test [2], 0.125 µg/mL; in the test with M. kansasii (ATCC 12478), 0.002 µg/mL; with M. avium (ATCC 25291), 0.25 µg/mL; in the test with M. xenopi (ATCC 19250) it was 0.016 µg/mL; in test [3], 1 µg/mL (≈ 0.979 µM). Also, the MIC in test [4] amounted to 0.25 µg/mL.
As to `CO[C@H]1/C=C/O[C@@]2(C)Oc3c(C)c(O)c4c(c3C2=O)C2=NC3(CCN(CC(C)C)CC3)NC2=C(NC(=O)/C(C)=C\C=C\[C@H](C)[C@H](O)[C@@H](C)[C@@H](O)[C@@H](C)[C@H](OC(=O)NC2CCN(Cc3ccccc3)CC2)[C@@H]1C)C4=O` [Compound 14], the MIC in test [1] is 0.125 µg/mL (≈ 0.122 µM); in test [2], 0.004 µg/mL; with M. kansasii (ATCC 12478), 0.0005 µg/mL; in the test on M. avium (ATCC 25291), 0.25 µg/mL; with M. xenopi (ATCC 19250), 0.008 µg/mL; in test [3] it was 0.25 µg/mL (≈ 0.245 µM). The MIC in test [4] worked out at 0.25 µg/mL.
Take `CO[C@H]1/C=C/O[C@@]2(C)Oc3c(C)c(O)c4c(c3C2=O)C2=NC3(CCN(CC(C)C)CC3)NC2=C(NC(=O)/C(C)=C\C=C\[C@H](C)[C@H](O)[C@@H](C)[C@@H](O)[C@@H](C)[C@H](OC(=O)N2CCN(C3CCCCC3)CC2)[C@@H]1C)C4=O` [Compound 10]: the MIC turned out to be 0.25 µg/mL (≈ 0.25 µM) in test [1]; 0.06 µg/mL in test [2]; 0.0002 µg/mL in the test on M. kansasii (ATCC 12478); 0.06 µg/mL in the test on M. avium (ATCC 25291); 0.002 µg/mL in the test on M. xenopi (ATCC 19250); 0.06 µg/mL (≈ 0.06 µM) in test [3]. Besides, the MIC in test [4] turned out to be 0.06 µg/mL.
`CO[C@H]1/C=C/O[C@@]2(C)Oc3c(C)c(O)c4c(c3C2=O)C2=NC3(CCN(CC(C)C)CC3)NC2=C(NC(=O)/C(C)=C\C=C\[C@H](C)[C@H](O)[C@@H](C)[C@@H](O)[C@@H](C)[C@H](OC(=O)N2CCN(c3ccccn3)CC2)[C@@H]1C)C4=O` [Compound 8]: the MIC in test [1] worked out at 0.25 µg/mL (≈ 0.251 µM); in test [2], 0.25 µg/mL; in the test with M. kansasii (ATCC 12478) it was 0.0005 µg/mL; with M. avium (ATCC 25291), 0.25 µg/mL; with M. xenopi (ATCC 19250) it was 0.008 µg/mL; in test [3] it was 0.5 µg/mL (≈ 0.503 µM). The MIC in test [4] stood at 0.125 µg/mL.
Turning to `CO[C@H]1/C=C/O[C@@]2(C)Oc3c(C)c(O)c4c(c3C2=O)C2=NC3(CCN(CC(C)C)CC3)NC2=C(NC(=O)/C(C)=C\C=C\[C@H](C)[C@H](O)[C@@H](C)[C@@H](O)[C@@H](C)[C@H](OC(=O)N2CCN(c3ccccc3)CC2)[C@@H]1C)C4=O` [Compound 7], the MIC in test [1] was 0.5 µg/mL (≈ 0.503 µM); in test [2] it was 0.125 µg/mL; in the test on M. kansasii (ATCC 12478), 0.001 µg/mL; in the test with M. avium (ATCC 25291), 0.25 µg/mL; with M. xenopi (ATCC 19250), 0.008 µg/mL; in test [3] it was 0.5 µg/mL (≈ 0.503 µM). Further, the MIC in test [4] came out at 0.125 µg/mL.
With `CO[C@H]1/C=C/O[C@@]2(C)Oc3c(C)c(O)c4c(c3C2=O)C2=NC3(CCN(CC(C)C)CC3)NC2=C(NC(=O)/C(C)=C\C=C\[C@H](C)[C@H](O)[C@@H](C)[C@@H](O)[C@@H](C)[C@H](OC(=O)N2C[C@H]3CN(CC5CCCCC5)C[C@H]3C2)[C@@H]1C)C4=O` [Compound 67], the MIC in test [1] came out at 1 µg/mL (≈ 0.962 µM); in test [2], 0.06 µg/mL; in the test with M. kansasii (ATCC 12478) it was 0.003 µg/mL; with M. avium (ATCC 25291), 0.016 µg/mL; in the test on M. xenopi (ATCC 19250), 0.004 µg/mL; in test [3], 0.125 µg/mL (≈ 0.12 µM).
For the molecule `CO[C@H]1/C=C/O[C@@]2(C)Oc3c(C)c(O)c4c(c3C2=O)C2=NC3(CCN(CC(C)C)CC3)NC2=C(NC(=O)/C(C)=C\C=C\[C@H](C)[C@H](O)[C@@H](C)[C@@H](O)[C@@H](C)[C@H](OC(=O)N2CCN(CC3CCCCC3)CC2)[C@@H]1C)C4=O` [Compound 9], the MIC in test [1] is 0.5 µg/mL (≈ 0.493 µM); in test [2], 0.5 µg/mL; with M. kansasii (ATCC 12478) it was 0.0002 µg/mL; in the test on M. avium (ATCC 25291), 0.125 µg/mL; in the test on M. xenopi (ATCC 19250) it was 0.016 µg/mL; in test [3] it was 0.125 µg/mL (≈ 0.123 µM). In test [4], the MIC is 0.06 µg/mL.
Take `CO[C@H]1/C=C/O[C@@]2(C)Oc3c(C)c(O)c4c(c3C2=O)C2=NC3(CCN(CC(C)C)CC3)NC2=C(NC(=O)/C(C)=C\C=C\[C@H](C)[C@H](O)[C@@H](C)[C@@H](O)[C@@H](C)[C@H](OC(=O)NC2CCN(C3CCCCC3)CC2)[C@@H]1C)C4=O` [Compound 77]: the MIC in test [1] was 0.06 µg/mL (≈ 0.0592 µM); in test [2], not above 0.016 µg/mL; in the test with M. kansasii (ATCC 12478), 0.03 µg/mL; in the test with M. avium (ATCC 25291), 0.25 µg/mL; in the test on M. xenopi (ATCC 19250), 0.06 µg/mL; in test [3] it was 1 µg/mL (≈ 0.987 µM).
